{"source": "ChEMBL document CHEMBL1166009", "about": "“A novel and one-pot synthesis of new 1-tosyl pyrrol-2-one derivatives and analysis of carbonic anhydrase inhibitory potencies” (Bioorg Med Chem, 2010)", "key": {"Carbonic anhydrase 2 [1]": {"molecular_target": "T1, Carbonic anhydrase 2 (Homo sapiens, UniProt P00918)", "assay": "Inhibition of esterase activity of human carbonic anhydrase 2 by spectrophotometry", "conditions": "read-out: I50"}, "Carbonic anhydrase 1 [2]": {"molecular_target": "T2, Carbonic anhydrase 1 (Homo sapiens, UniProt P00915)", "T2 sequence (P00915 2-261 limits assumed)": "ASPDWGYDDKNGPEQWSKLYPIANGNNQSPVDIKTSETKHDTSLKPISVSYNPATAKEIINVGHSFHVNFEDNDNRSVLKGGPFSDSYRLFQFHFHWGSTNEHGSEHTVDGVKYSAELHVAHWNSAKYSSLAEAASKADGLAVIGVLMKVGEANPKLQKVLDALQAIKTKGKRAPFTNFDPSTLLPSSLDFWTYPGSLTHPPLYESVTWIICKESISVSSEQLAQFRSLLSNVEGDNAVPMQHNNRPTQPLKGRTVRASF", "description": "Inhibition of esterase activity of human carbonic anhydrase 1 by Lineweaver-Burke plot analysis"}, "Carbonic anhydrase 1 [3]": {"molecular_target": "T2, Carbonic anhydrase 1", "assay": "Inhibition of esterase activity of human carbonic anhydrase 1 by spectrophotometry", "conditions": "read-out: I50"}, "Carbonic anhydrase 2 [4]": {"molecular_target": "T1, Carbonic anhydrase 2", "description": "Inhibition of esterase activity of human carbonic anhydrase 2 by Lineweaver-Burke plot analysis"}}, "data": [{"smiles": "Cc1ccc(S(=O)(=O)n2cccc2)cc1", "values": [{"measurement": "IC50", "setting": "Carbonic anhydrase 2 [1]", "value": 14.3, "unit": "µM"}, {"measurement": "Ki", "setting": "Carbonic anhydrase 1 [2]", "value": 42.4, "unit": "µM"}, {"measurement": "IC50", "setting": "Carbonic anhydrase 1 [3]", "value": 23.1, "unit": "µM"}, {"measurement": "Ki", "setting": "Carbonic anhydrase 2 [4]", "value": 37.5, "unit": "µM"}]}]}
